Source: publication PMC5384453, “A multi-functional PEGylated gold(III) compound: potent anti-cancer properties and self-assembly into nanostructures for drug co-delivery” (Chemical Science, 2016)

Key:
[1] = tested on: NCM460 cells; experiment: Time-dependent induction of apoptosis, Caspase-3/7 Green ReadyProbes fluorescence microscopy; assay type: cell-based, human; details: NCM460, 2 μM, Caspase-3/7 Green Reagent
Procedure: B from 20.1 to 25 min and returned to initial conditions and equilibrated for 3 minutes.
The flow rate was 0.4 mL/min and the injection volume was 2 µL. The UPLC-QTOF-MS chromatograms of 1, 3, 4 and solvent control in acetonitrile were also recorded for the interpretation of UPLC-QTOF-MS chromatograms of the cell lysate.
Cellular uptake experiments. HCT116, A2780 and A2780adr (2×10 5 cells), and MIHA and NCM460 (3.5×10 5 cells) cells were grown on 6-well plates at 37 °C under an atmosphere of 5% CO2 for 48 h. The culture medium was then removed, washed with PBS solution, and incubated with culture medium containing nanostructures of 1 […]
Au1a (2 µM; with 1 vol% DMSO). At a predetermined time, the culture medium was removed and washed with PBS solution for three times. […] An aliquot of the cell suspension was subjected to Bio-rad protein assay with a microtitre plate reader at the absorbance at 595 nm, using bovine serum albumin as the protein standard. […] The solution mixture was heated at 65 °C with shaking overnight, and the gold content was determined by ICP-MS. […]
then removed and washed with PBS solution. The cells were then incubated with culture medium containing nanostructures of 1 (2 µM) and CellEvent Caspase-3/7 Green ReadyProbes Reagent (30 µL), or Au1a (2 µM; with 1 vol% DMSO) and CellEvent Caspase-3/7 Green ReadyProbes Reagent (30 µL) at 37 °C under an atmosphere of 5% CO2. […]

[2] = tested on: CHEM-5; experiment: In vitro cytotoxicity, MTT assay; assay type: cell-based, human; details: CHEM-5, MTT assay, 72 h
Procedure: (§1) page 7: The gold content of the nanocomposites was determined by dissolving the nanocomposites in conc. HNO3 / conc. HCl solution mixture (9:1, v/v; 30 µL), followed by ICP-MS analysis. […] The nanocomposite (10 µL) was dissolved in acetonitrile (90 µL), and subjected to gentle shaking overnight. The solution mixture was then dried under vacuum, and re- dispersed in 0.1 vol% formic acid in water/acetonitrile (7/3, v/v; 1 mL) solution mixture. […] The mobile phase was 0.1 vol% formic acid in water/acetonitrile (7:3, v/v) solution mixture. […] The cells were then treated with a serial concentration of gold(III) complexes and incubated at 37 °C under a 5% CO2 atmosphere for 72 h. […] After incubation for 72 h, MTT in PBS solution (5 mg/mL, 10 μL) was added to each well. The plates were incubated at 37 °C under a 5% CO2 atmosphere for another 4 h, and the cells were lysed by the addition of SDS solution (10%, w/w) with 0.01 M HCl (100 μL). After incubation in dark at 37 °C overnight, the cell viability after treatment was determined by a microtitre plate reader monitoring at the absorbance at 590 nm, P.7 page 8: which reflected the amount of blue formazan formed. IC50 values were then determined by CompuSyn S6 from three independent measurements. Study on the release of hydrolyzed product from 1 and 2 in aqueous buffer solutions by ICP-MS. […] At a predetermined time, an aliquot of solution was removed and dissolved in HNO3/HCl solution mixture (9:1, v/v; volume of aliquot: volume of acid mixture = 1:3). The solution mixture was heated at 65 °C with shaking overnight, and the gold content was determined by ICP-MS from three independent aliquots. […] 37 °C for 24 h. […] Analysis of cell lysate of HCT116 cells treated with complexes 1 and 3 by UPLC- QTOF-MS. […] All the cells were harvested, washed with PBS solution for three times and dispersed in ice-cold water. The cell suspension was then added to ice-cold acetonitrile (1:3, v/v), vortexed for 5 min, and centrifuged at 10,000 rpm at 4 °C. The supernatant was collected, dried under vacuum and the solid was re-dissolved in acetonitrile (HPLC grade) for UPLC- QTOF-MS experiments. The mobile phase was a mixture of 0.1% formic acid in water (phase A) and 0.1% formic acid in acetonitrile (phase B). […] P.46

[3] = tested on: L02; experiment: In vitro cytotoxicity, MTT assay; assay type: cell-based, human; details: 72 h
Procedure: as §1

[4] = Zeta potential measurement of nanostructures in PBS; assay type: physicochemical
Description: On the other hand, the almost neutral zeta potentials of the nanostructures of 1 and 2 validated the presence of PEG pendant in the shell of the nanostructures. The identity of gold species in the core of the nanostructures was supported by the good contrast of the core in the TEM images (Fig. 1c and S3a ^†) and energy-dispersive X-ray (EDX) spectra (Fig. 1f). […]
(MIHA), human normal liver cells (L02) and human normal gliocyte cells (CHEM-5) were maintained in Dulbecco’s modified Eagle’s medium with 10 vol% fetal bovine serum, ʟ-glutamine (2 mM) and penicillin/streptomycin (100 U/mL). […]
TOF/TOF™ Analyzer using α-cyano-4-hydroxycinnamic acid with sodium trifluoroacetate as the matrix. […]
Premier quadrupole time-of-flight tandem mass spectrometer. […]
Ultra performance […]
liquid chromatography (UPLC) measurements were performed on a Waters
ACQUITY UPLC H-Class System equipped with a photodiode array for detection.
Elemental analyses were performed on the Carlo Erba 1106 elemental analyzer at the Institute of Chemistry, Chinese Academy of Sciences, Beijing, China. […]
Dynamic light scattering (DLS) and zeta potential measurements were performed

For `C1=Cc2nc1c(-c1ccccc1)c1ccc([n-]1)c(-c1ccccc1)c1nc(c(-c3ccccc3)c3ccc([n-]3)c2-c2ccccc2)C=C1.[Au+3].[Cl-]` [Au1a, [Au(TPP)]Cl, reference compound], the “incubation time at which induction of apoptosis was apparent” value [1] was 20 h.

For `COC(=O)c1ccc(C2=C3C=CC(=N3)C(c3ccccc3)=c3ccc4[n]3[Au+][n]3c(ccc32)C(c2ccccc2)=C2C=CC(=N2)C=4c2ccccc2)cc1.[Cl-]` [Compound 3, [Au(TPP–COOCH3)]^+], the IC50 [2] was 3.5 ± 0.03 µM and the IC50 [3] was 0.2 ± 0.05 µM.

In the case of “[Au(TPP–CONH–PEG5000–OCH3)]Cl [Compound 2]”, the Zeta potential [4] is reported as “–0.7 ± 4.2 mV”.

With “[Au(TPP–COO–PEG5000–OCH3)]Cl [Compound 1]” the Zeta potential [4] was “–0.1 ± 1.6 mV”, the IC50 [2] was 11.3 ± 0.05 µM and the IC50 [3] was 3.8 ± 0.1 µM. For the same molecule, the “incubation time at which induction of apoptosis was apparent” value [1] was “no significant apoptosis”.
